From ChEMBL document CHEMBL3045989, “The Veratrum alkaloids jervine, veratramine, and their analogues as prostate cancer migration and proliferation inhibitors: biological evaluation and pharmacophore modeling” (Med Chem Res, 2013) come the findings set out here.

Active and inactive are the calls of the source. The calls are words filed in the database; no cut-off is given here.

Holding throughout (format): functional, cell-based
Assay [1] has as its system PC-3. As to the kind of experiment: Antiproliferative activity against Homo sapiens (human) PC3 cells at 50 uM after 72 hr by MTT assay.
For assay [2], the system named is PC-3. The experiment in a line: Antimigratory activity against Homo sapiens (human) PC3 cells at 50 uM after 24 hr by wound-healing assay.
For assay [3], the system named is PC-3. The experiment in a line: Antimigratory activity against Homo sapiens (human) PC3 cells at 200 uM after 24 hr by wound-healing assay.
Assay [4] relates to PC-3. The experiment in a line: Antiproliferative activity against Homo sapiens (human) PC3 cells at 1 uM after 72 hr by MTT assay.
Assay [5] concerns PC-3. As to the kind of experiment: Antiproliferative activity against Homo sapiens (human) PC3 cells at 10 uM after 72 hr by MTT assay.

Turning to `CC1=C2C(=O)[C@H]3[C@@H](CC[C@H]4C[C@@H](O)C[C@H](O)[C@@]43C)[C@@H]2CC[C@]12O[C@@H]1C[C@H](C)CN[C@H]1[C@H]2C`, the outcome in assay [1] was inactive. Besides, the result in assay [2] was Active.
For the compound `O=C1NC(=O)/C(=C/c2ccc(O)cc2)N1`, the result in assay [3] was Active.
`CC1=C2C(=O)[C@H]3[C@@H](CC[C@H]4C[C@@H](O)CC[C@@]43C)[C@@H]2CC[C@]12O[C@@H]1C[C@H](C)CN[C@H]1[C@H]2C`: the result in assay [1] was Active. In assay [2], the result was inactive.
For the compound `C/C1=C/C(=O)O[C@@H]2C[C@@H](CC[C@H](C)/C=C\C=C\CC1)O[C@@](O)([C@@H]1CSC(=O)N1)C2`, the result in assay [4] was Active.
Take `CC1=C2C(=O)[C@H]3[C@@H](CC=C4C[C@@H](O)CC[C@@]43C)[C@@H]2CC[C@]12O[C@@H]1C[C@H](C)CN[C@H]1[C@H]2C`: the result in assay [1] and in assay [2] was Active.
Consider `Cc1c([C@H](C)[C@@H]2NC[C@@H](C)C[C@H]2O)ccc2c1C[C@H]1[C@H]2CC[C@H]2CC(=O)CC[C@@]21C`, for which the outcome in assay [1] and in assay [2] was Active.
On to `Cc1c([C@H](C)[C@@H]2NC[C@@H](C)C[C@H]2O)ccc2c1C[C@H]1[C@H]2CCC2=CC(=O)C=C[C@@]21C`, for which the result in assay [1] and in assay [2] was Active.
Consider `CC1=C2C(=O)[C@H]3[C@@H](CC=C4CC(=O)CC[C@@]43C)[C@@H]2CC[C@]12O[C@@H]1C[C@H](C)CN[C@H]1[C@H]2C`, for which the outcome in assay [1] and in assay [2] was Active.
On to `Cc1c([C@H](C)[C@@H]2NC[C@@H](C)C[C@H]2O)ccc2c1C[C@H]1[C@H]2CCC2=CC(=O)CC[C@@]21C`, for which the outcome in assay [1], in assay [5] and in assay [2] was Active.
Turning to `Cc1c([C@H](C)[C@@H]2NC[C@@H](C)C[C@H]2O)ccc2c1C[C@H]1[C@H]2CC=C2C[C@@H](O)CC[C@@]21C`, the result in assay [1] and in assay [2] was Active.
`CC1=C2C(=O)[C@H]3[C@@H](CC=C4C[C@@H](O[C@@H]5O[C@H](CO)[C@@H](O)[C@H](O)[C@H]5O)CC[C@@]43C)[C@@H]2CC[C@]12O[C@@H]1C[C@H](C)CN[C@H]1[C@H]2C`: the result in assay [1] and in assay [2] was inactive.
